In paper PMC11177969, “Comprehensive Analyses of the Effects of the Small-Molecule Inhibitor of the UHM Domain in the Splicing Factor U2AF1 in Leukemia Cells” (Research Square, 2024):
Where two headings read alike, the source gives them in different places.

How the values were obtained:
U2AF1-UHM [1] = target: T1, U2AF1-UHM (Homo sapiens, UniProt Q01081); assay: HTRF assay, inhibition of binding between U2AF1-UHM and U2AF2-ULM
T1 construct: we screened the CCG fragment library from University of Michigan against the U2AF1-UHM domain using the Thermal Shift Assay (TSA)
T1 sequence (Q01081 65-147 limits assumed): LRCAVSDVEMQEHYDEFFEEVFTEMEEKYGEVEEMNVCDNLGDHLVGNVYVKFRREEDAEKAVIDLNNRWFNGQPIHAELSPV
Text: TSA data provided no information of the binding site in U2AF1-UHM. To identify the binding sites of both hits to U2AF1-UHM, we synthesized CCG211578 (named Hit1/SF1–8) and CCG210084 (named Hit2/9 in Fig.2C) and asked if they inhibited the binding between U2AF1-UHM and U2AF2-ULM using our previously developed HTRF assay.[42] […] The IC50 values of SF1–8 and Hit2 correlated with the ΔTm values observed in TSA. We have reported that the conserved Trp binding site in U2AF1-UHM dominated the binding affinity between U2AF2-ULM and U2AF1-UH.[42]

PUF60-UHM = target: T2, PUF60-UHM (Homo sapiens, UniProt Q9UHX1); assay: HTRF assay; assay type: binding; conditions: Fig. 2C
T2 sequence (Q9UHX1 462-549 limits assumed): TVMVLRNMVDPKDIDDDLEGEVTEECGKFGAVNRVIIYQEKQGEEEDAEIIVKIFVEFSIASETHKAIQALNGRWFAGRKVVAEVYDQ
Text: (§1) To determine the selectivity of SF1–8 against other homologous UHM domains, we measured the IC50 values of SF1–8 to RBM39-UHM, SPF45-UHM and PUF60-UHM using the HTRF assay.[42] […] In the chemical synthesis (Scheme S1), methylation on the pyrazole group in SF1–8 can occur at the N8 or N9 position (Fig.2C). Although the NMR spectra can be used to infer the methyl group position on the pyrazole, we determined the crystal structure of a SF1–8 precursor to clearly confirm the methyl group is at N9 in SF1–8 (Fig.2C). To further probe the interaction of SF1–8 with U2AF1-UHM, we synthesized SF1–8 analogs and developed the structure activity relationship (SAR) (Fig.2C). […] A longer alkyl group was tolerated at the N8 position but not at the N9 position. […] The crystal structure of a 7c precursor experimentally determined from SCXRD again confirmed the location of the propyl group (Fig. 2C).

RBM39-UHM = target: T3, RBM39-UHM (Homo sapiens, UniProt Q14498); assay: HTRF assay; assay type: binding; conditions: Fig. 2C; SD of 2 independent experiments in parentheses
T3 sequence (Q14498 445-508 limits assumed): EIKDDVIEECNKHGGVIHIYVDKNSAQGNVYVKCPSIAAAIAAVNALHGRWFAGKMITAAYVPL
Text: as §1

SPF45-UHM = target: T4, SPF45-UHM (Homo sapiens, UniProt Q96I25); assay: HTRF assay; assay type: binding; conditions: Fig. 2C; SD of 2 independent experiments in parentheses
T4 sequence (Q96I25 306-385 limits assumed): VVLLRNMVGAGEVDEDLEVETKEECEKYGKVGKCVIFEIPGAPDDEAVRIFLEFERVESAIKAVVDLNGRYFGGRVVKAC
Text: as §1

K562-U2AF1^S34F = system: K562-U2AF1^S34F; design: method as in PMID 33689684; conditions: cited from earlier work
U2AF1-UHM [2] = target: T1, U2AF1-UHM; assay: Thermal Shift Assay (TSA) fragment library screening; assay type: binding; conditions: confirmatory screening in triplicate, read-out: ΔTm (melting temperature change) of U2AF1-UHM
Protocol: To develop a different targeting strategy, we assessed potential tractable binding sites in U2AF1 using computational analysis and determined that the UHM domain of U2AF1 was for identifying hits (Fig.S1).[42] To discover hits, we screened the CCG fragment library from University of Michigan against the U2AF1-UHM domain using the Thermal Shift Assay (TSA). An initial single concentration screening at 200 μM led to identify 149 compounds that gave positive shifts of the melting temperature (ΔTm) in U2AF1-UHM. These compounds were subject to a secondary confirmatory screening in triplicate at 200 μM.

[3] = Fig. 2C, SD of 2 independent experiments in parentheses, read-out: IC50 U2AF1

Row | Structure (SMILES) | IC50 (U2AF1-UHM [1]; [3]) [µM] | IC50 (PUF60-UHM) [µM] | IC50 (RBM39-UHM) [µM] | IC50 (SPF45-UHM) [µM] | fold lower IC50 value in K562-U2AF^S34F than in K562-U2AF1^wt (K562-U2AF1^S34F) | selectivity between K562-U2AF1^S34F and K562-U2AF1^wt (K562-U2AF1^S34F) [fold] | ΔTm at 200 µM (U2AF1-UHM [2]) [°C] | IC50 (U2AF1-UHM [1]; representative titration curves, Fig. 2B, read-out: IC50 against U2AF1-UHM) [µM]
1 | CC(C)n1nc(O)cc1C1(C)CCNCC1 [8d] | 71.6 | 459 | 395 | 354 |  |  |  | 
2 | CC1(C)C2CCC(CN=C(N)CSS(=O)(=O)O)C1C2 (stereo not drawn) [NSC194308] |  |  |  |  | 2–3 fold | 2 |  | 
3 | CCn1nc(O)cc1C1(C)CCNCC1 [8b] | 232 | > 1000 | > 1000 | 799 |  |  |  | 
4 | CC(C)n1nc(C2(C)CCNCC2)cc1O [7d] | 863 | 1090 | 791 | 694 |  |  |  | 
5 | CCCn1nc(C2(C)CCNCC2)cc1O [7c] | 53.1 | 541 | 310 | 62.4 |  |  |  | 
6 | CC1(c2cc(O)[nH]n2)CCNCC1 [compound 9] | 343 ± 62.4 | 992 | 686 | > 1000 |  |  | 1.5 | 328
